Tests used:
[1] = tested on: AMY3; assay: Emax (maximal agonist-induced change in ebBRET relative to vehicle) (% of vehicle response (amplitude of change)); higher = larger response (for Gs, larger decrease in membrane ebBRET, i.e. stronger Gs activation)
[2] = target: AMY3; assay: pEC50 of agonist-induced pathway activation (ebBRET)
[3] = target: mGluR8 (UniProt O00222); assay: as above
[4] = target: T1, B1 (UniProt P46663); assay: Emax (maximal agonist-induced change in ebBRET relative to vehicle) (% of vehicle response (amplitude of change)); higher = larger response (for Gs, larger decrease in membrane ebBRET, i.e. stronger Gs activation)
T1 sequence (whole entry): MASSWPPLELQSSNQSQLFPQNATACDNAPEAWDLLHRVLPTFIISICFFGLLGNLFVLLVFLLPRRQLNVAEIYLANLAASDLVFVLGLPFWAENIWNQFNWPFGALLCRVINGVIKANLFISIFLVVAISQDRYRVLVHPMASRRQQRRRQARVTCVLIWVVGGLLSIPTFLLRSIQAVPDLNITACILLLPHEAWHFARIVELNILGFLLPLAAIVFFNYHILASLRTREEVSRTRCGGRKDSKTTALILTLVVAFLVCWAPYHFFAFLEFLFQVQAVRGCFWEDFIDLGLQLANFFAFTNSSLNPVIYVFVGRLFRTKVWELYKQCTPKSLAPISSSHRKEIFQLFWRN

[5] = target: T2, B2 (UniProt P30411); assay: as above
T2 sequence (whole entry): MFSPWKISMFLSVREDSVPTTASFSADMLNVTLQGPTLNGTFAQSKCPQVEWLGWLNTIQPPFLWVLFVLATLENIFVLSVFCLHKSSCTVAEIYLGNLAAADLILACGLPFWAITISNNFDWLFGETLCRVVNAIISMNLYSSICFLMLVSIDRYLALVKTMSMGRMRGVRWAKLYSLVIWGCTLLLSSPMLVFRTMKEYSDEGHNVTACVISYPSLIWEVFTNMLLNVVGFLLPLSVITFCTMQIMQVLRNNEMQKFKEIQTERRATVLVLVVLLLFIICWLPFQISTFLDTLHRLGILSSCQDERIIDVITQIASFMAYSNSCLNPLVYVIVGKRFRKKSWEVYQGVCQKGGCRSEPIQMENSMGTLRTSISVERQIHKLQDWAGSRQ

[6] = target: T1, B1; assay: pEC50 of agonist-induced pathway activation (ebBRET)
[7] = target: T2, B2; assay: as above
[8] = target: GPR4 (UniProt P46093); assay: Emax (maximal agonist-induced change in ebBRET relative to vehicle) (% of vehicle response (amplitude of change)); higher = larger response (for Gs, larger decrease in membrane ebBRET, i.e. stronger Gs activation)
[9] = target: GPR68 (UniProt Q15743); assay: as above
[10] = target: GPR65 (UniProt Q8IYL9); assay: as above
[11] = target: GPR4 (UniProt P46093); assay: pEC50 of agonist-induced pathway activation (ebBRET)
[12] = target: GPR68 (UniProt Q15743); assay: as above
[13] = target: GPR65 (UniProt Q8IYL9); assay: as above

Sequence of GPR65 (Q8IYL9 whole entry): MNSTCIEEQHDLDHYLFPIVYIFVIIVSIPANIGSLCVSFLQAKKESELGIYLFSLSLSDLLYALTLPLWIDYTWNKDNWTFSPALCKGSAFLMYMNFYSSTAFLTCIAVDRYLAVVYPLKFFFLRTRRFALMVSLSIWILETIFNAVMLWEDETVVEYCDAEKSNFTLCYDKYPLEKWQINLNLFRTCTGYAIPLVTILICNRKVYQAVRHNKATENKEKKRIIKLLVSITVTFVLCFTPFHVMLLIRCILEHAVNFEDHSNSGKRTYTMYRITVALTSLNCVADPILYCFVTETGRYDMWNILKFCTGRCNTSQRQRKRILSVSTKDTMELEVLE
Sequence of GPR4 (P46093 whole entry, looked up): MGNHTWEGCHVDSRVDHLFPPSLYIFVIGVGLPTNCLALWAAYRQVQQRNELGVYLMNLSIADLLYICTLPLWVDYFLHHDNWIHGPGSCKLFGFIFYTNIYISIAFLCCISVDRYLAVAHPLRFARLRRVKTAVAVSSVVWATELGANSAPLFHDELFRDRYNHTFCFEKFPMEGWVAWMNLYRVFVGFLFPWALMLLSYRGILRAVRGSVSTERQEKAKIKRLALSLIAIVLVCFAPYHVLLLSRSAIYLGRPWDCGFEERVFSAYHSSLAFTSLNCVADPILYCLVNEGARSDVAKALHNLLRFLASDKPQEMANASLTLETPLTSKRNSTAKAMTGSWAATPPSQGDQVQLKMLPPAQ
Sequence of mGluR8 (O00222 whole entry): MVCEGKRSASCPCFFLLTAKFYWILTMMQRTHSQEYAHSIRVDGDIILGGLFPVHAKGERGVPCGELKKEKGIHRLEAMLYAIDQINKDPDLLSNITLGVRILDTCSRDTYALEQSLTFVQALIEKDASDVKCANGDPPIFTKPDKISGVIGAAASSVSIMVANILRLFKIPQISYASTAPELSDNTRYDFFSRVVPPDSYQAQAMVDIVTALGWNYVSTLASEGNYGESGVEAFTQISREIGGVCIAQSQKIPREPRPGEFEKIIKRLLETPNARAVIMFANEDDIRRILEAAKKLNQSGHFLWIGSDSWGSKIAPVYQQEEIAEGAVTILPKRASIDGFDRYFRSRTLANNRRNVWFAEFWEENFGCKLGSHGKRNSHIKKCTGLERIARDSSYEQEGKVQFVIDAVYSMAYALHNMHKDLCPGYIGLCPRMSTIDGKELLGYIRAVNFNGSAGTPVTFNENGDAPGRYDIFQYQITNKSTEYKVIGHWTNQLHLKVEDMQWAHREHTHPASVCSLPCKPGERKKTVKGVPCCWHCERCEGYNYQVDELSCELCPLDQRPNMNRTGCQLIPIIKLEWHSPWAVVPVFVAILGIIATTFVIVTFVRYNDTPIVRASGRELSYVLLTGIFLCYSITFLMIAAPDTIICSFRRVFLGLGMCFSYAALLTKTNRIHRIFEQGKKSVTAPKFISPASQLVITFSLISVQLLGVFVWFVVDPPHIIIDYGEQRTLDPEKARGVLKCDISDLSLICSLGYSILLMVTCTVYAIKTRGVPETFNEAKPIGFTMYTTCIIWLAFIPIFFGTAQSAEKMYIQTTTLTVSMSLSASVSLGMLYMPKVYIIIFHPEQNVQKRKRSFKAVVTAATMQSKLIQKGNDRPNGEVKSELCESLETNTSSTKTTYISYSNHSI
Sequence of GPR68 (Q15743 whole entry): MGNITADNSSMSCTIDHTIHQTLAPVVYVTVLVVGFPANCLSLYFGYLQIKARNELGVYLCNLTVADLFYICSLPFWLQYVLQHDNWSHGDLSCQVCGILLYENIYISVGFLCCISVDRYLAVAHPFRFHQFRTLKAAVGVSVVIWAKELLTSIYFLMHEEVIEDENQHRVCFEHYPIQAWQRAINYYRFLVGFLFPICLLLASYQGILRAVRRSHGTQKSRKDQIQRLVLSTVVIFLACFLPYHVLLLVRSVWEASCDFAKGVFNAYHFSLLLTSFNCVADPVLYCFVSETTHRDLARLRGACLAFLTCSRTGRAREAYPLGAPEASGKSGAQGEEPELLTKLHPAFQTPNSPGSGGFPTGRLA

CC[C@H](C)[C@H](NC(=O)[C@H](C)NC(=O)CNC(=O)[C@H](Cc1ccccc1)NC(=O)[C@H](CC(N)=O)NC(=O)[C@H](CC(N)=O)NC(=O)[C@H](CO)NC(=O)[C@H](CO)NC(=O)[C@H](Cc1cnc[nH]1)NC(=O)[C@@H](NC(=O)[C@H](CC(C)C)NC(=O)[C@H](Cc1ccccc1)NC(=O)[C@H](CC(N)=O)NC(=O)[C@H](C)NC(=O)[C@H](CC(C)C)NC(=O)[C@H](CCCNC(=N)N)NC(=O)[C@H](CCC(N)=O)NC(=O)[C@@H](NC(=O)[C@H](C)NC(=O)[C@@H]1CSSC[C@H](NC(=O)[C@@H](N)CCCCN)C(=O)N[C@@H](CC(N)=O)C(=O)N[C@@H]([C@@H](C)O)C(=O)N[C@@H](C)C(=O)N[C@@H]([C@@H](C)O)C(=O)N1)[C@@H](C)O)C(C)C)C(=O)N[C@@H](CC(C)C)C(=O)N[C@@H](CO)C(=O)N[C@@H](CO)C(=O)N[C@H](C(=O)N[C@@H](CC(N)=O)C(=O)N[C@H](C(=O)NCC(=O)N[C@@H](CO)C(=O)N[C@@H](CC(N)=O)C(=O)N[C@H](C(=O)N[C@@H](Cc1ccc(O)cc1)C(N)=O)[C@@H](C)O)C(C)C)[C@@H](C)O [Amylin]
Conditions | Emax, pathway (G protein / arrestin sensor): G12 | Emax, pathway (G protein / arrestin sensor): G13 | Emax, pathway (G protein / arrestin sensor): G15 | Emax, pathway (G protein / arrestin sensor): Gs | pEC50, pathway (G protein / arrestin sensor): G12 | pEC50, pathway (G protein / arrestin sensor): G13 | pEC50, pathway (G protein / arrestin sensor): G15 | pEC50, pathway (G protein / arrestin sensor): Gs
[1] | 62.3 | 271 | 122 | 21.4 | – | – | – | –
[2] | – | – | – | – | 8.6 | 8.49 | 7.22 | 7.79

NC(CCC(=O)O)C(=O)O (stereo not given) [Glutamate]
[3]
Conditions | pEC50
pathway (G protein / arrestin sensor): Gi1 | 5.6
pathway (G protein / arrestin sensor): Gi2 | 5.52
pathway (G protein / arrestin sensor): GoA | 6.07
pathway (G protein / arrestin sensor): GoB | 5.99
pathway (G protein / arrestin sensor): Gz | 5.49

NCCCC[C@H](N)C(=O)N[C@@H](CCCN=C(N)N)C(=O)N1CCC[C@H]1C(=O)N1CCC[C@H]1C(=O)NCC(=O)N[C@@H](Cc1ccccc1)C(=O)N[C@@H](CO)C(=O)N1CCC[C@H]1C(=O)N[C@@H](Cc1ccccc1)C(=O)N[C@@H](CCCN=C(N)N)C(=O)O [Kallidin]
Conditions | Emax, [4] | Emax, [5] | pEC50, [6] | pEC50, [7]
pathway (G protein / arrestin sensor): G11 | 201 | 802 | 6.8 | 9.54
pathway (G protein / arrestin sensor): G12 | – | 83.2 | – | 10.2
pathway (G protein / arrestin sensor): G13 | – | 484 | – | 9.16
pathway (G protein / arrestin sensor): G14 | 162 | 871 | 6.88 | 9.54
pathway (G protein / arrestin sensor): G15 | 78.9 | 1050 | 7.54 | 8.75
pathway (G protein / arrestin sensor): Gi1 | 94.8 | 478 | 6.64 | 8.14
pathway (G protein / arrestin sensor): Gi2 | 65.7 | 257 | 6.75 | 7.87
pathway (G protein / arrestin sensor): GoA | 81.3 | 149 | 6.7 | 7.83
pathway (G protein / arrestin sensor): GoB | 161 | 360 | 6.78 | 8.14
pathway (G protein / arrestin sensor): Gq | 171 | 576 | 6.91 | 9.71
pathway (G protein / arrestin sensor): Gz | 32.3 | 204 | 6.93 | 8.65
pathway (G protein / arrestin sensor): βarr1/GRK2 | – | 1740 | – | 8.62
pathway (G protein / arrestin sensor): βarr2 | – | 889 | – | 8.54
pathway (G protein / arrestin sensor): βarr2/GRK2 | – | 1180 | – | 8.52

Cl [pH (proton)]
Conditions | Emax, [8] | Emax, [9] | Emax, [10] | pEC50, [11] | pEC50, [12] | pEC50, [13]
pathway (G protein / arrestin sensor): G11 | 164 | 849 | – | 6.64 | 7.35 | –
pathway (G protein / arrestin sensor): G12 | – | 63.4 | – | – | 7.71 | –
pathway (G protein / arrestin sensor): G13 | – | 65.6 | 117 | – | 8.24 | 7.9
pathway (G protein / arrestin sensor): G14 | 61.3 | 871 | – | 6.26 | 7.2 | –
pathway (G protein / arrestin sensor): G15 | 111 | 446 | – | 6.59 | 6.49 | –
pathway (G protein / arrestin sensor): Gi1 | – | 582 | – | – | 6.56 | –
pathway (G protein / arrestin sensor): Gi2 | – | 454 | – | – | 6.63 | –
pathway (G protein / arrestin sensor): GoA | – | 296 | – | – | 7.17 | –
pathway (G protein / arrestin sensor): GoB | – | 428 | 86.8 | – | 7.41 | 6.3
pathway (G protein / arrestin sensor): Gq | 152 | 749 | – | 6.73 | 7.4 | –
pathway (G protein / arrestin sensor): Gs | 44.2 | 44.9 | 32.3 | 7.91 | 6.51 | 7
pathway (G protein / arrestin sensor): βarr1/GRK2 | 41.4 | 76.2 | 57.6 | – | 6.25 | 5.98
pathway (G protein / arrestin sensor): βarr2 | 173 | 103 | 68.8 | 6.99 | 6 | 6.31
pathway (G protein / arrestin sensor): βarr2/GRK2 | – | 147 | – | – | 6.07 | –
